Results from patent US20220233556A1, “COMPOSITIONS AND METHODS FOR TREATING OPHTHALMIC CONDITIONS” (Medicon Pharmaceuticals, Inc., priority 2017, published 2022).
Where two headings read alike, the source gives them in different places.

Columns and labels:
[1] = Safety of topically applied PS in rabbits (slit lamp, intraocular pressure, necropsy); format: in vivo
Description: The Safety of Topically Applied PS.

NF-κB = NF-κB activation in the ILG of rabbits with DED; format: in vivo; details: 1 week of treatment, vs vehicle
Protocol: (§1) FIGS. 6A and 6B illustrate that PS suppresses the activation of NF-κB and MAPKs. In FIG. 6A, NF-κB activation was determined by EMSA in cultured human conjunctival cells stimulated with TNFα (top) and in the ILG of rabbits with Con A-induced DED and treated for one week with either vehicle or PS (bottom). In FIG. 6B, immunoblots detecting the activation of MAPKs by phosphorylation in cultured human conjunctival cells treated with PS at the indicated concentrations for 3.5 h. Loading control: β-actin.
Human conjunctival cells were treated with various concentrations of PS. Five hours later, TNF-α was added to the culture medium to a final concentration of 10 ng/ml and the status of NF-κB activation was determined by EMSA 1 h later. […] Similarly, after 1 week of treatment, PS suppressed NF-κB activation in the ILG of rabbits with DED compared to those treated with vehicle.

JNK and Erk1/2 = assay: MAPK activation by phosphorylation (immunoblots) in human conjunctival cells; format: cell-based; details: PS 3.5 h
Protocol: as §1
The conjunctiva cells used express only the JNK and Erk1/2 pathways.

PGE2 = PGE2 levels in tears and cornea of rabbits (ELISA); format: in vivo
Protocol: FIGS. 9A and 9B illustrate that PS preserves the levels of PGE2 in tears and the cornea. In FIG. 9A, PGE2 levels were determined by ELISA in tears collected on day 7 from naïve rabbits and rabbits with Con A-induced DED treated for 1 week with vehicle or PS. In FIG. 9B, PGE2 levels were further examined. Upper panel: PGE2 levels in the tears of naïve rabbits and rabbits with Con A-induced DED treated for 1 h with PS or ketorolac as in Methods. Lower panel: PGE2 levels in the corneal tissue of naïve rabbits and rabbits with Con A-induced DED treated for 1 week with vehicle or PS or ketorolac or diclofenac. n=8 eyes/group. Values=mean±SEM.
It was determined that the levels of PGE2 in rabbit tears in three groups of rabbits, naïve and those with Con A-induced DED that were treated for 1 week either with PS or vehicle.
In an acute experiment, administered once topically to the eyes of four groups of rabbits with Con A-induced DED was one of the following: vehicle, PS, ketorolac or diclofenac; the latter two are NSAIDs used for the treatment of ocular inflammation and pain. It was determined that the levels of PGE2 in the cornea of these rabbits obtained 1 h later as well as in the corneas of naïve rabbits.

[2] = Rabbit ocular PK study of PS emulsion (2% PS); format: in vivo, New Zealand rabbits; details: 2% PS emulsion
Protocol: A formulation includes 2% PS; 5% Propylene glycol, 10% Mineral oil, 4% Tween 60, 4% Tween 80, 10% (2-hydroxypropyl)-β-cyclodextrin (HP-β-CD). Preparation method (2 mL scale): Oil phase: weight PS into glass vial, add propylene glycol, stir at 50° C. to obtain a clear solution. Then add mineral oil, stir to obtain a clear solution. Water phase: Dissolve HP-β-CD, […] and Tween 80 into water. Add water phase into oil phase, probe-sonicate for 5 sec, 8 times, with 5 sec intervals. Resultant emulsion is filtrated through 0.22 μm filter.
Rabbit ocular pharmacokinetic (PK) study: PS was administered to New Zealand rabbits topically to the eye; as three 25 μL eye drops, 5 min apart. Rabbits were euthanized at eight specified time points between 0.25 to 16 h, ocular tissues were dissected and PS was extracted with acetonitrile and its tissue levels as well as those of its metabolites were determined by HPLC as described (Xie G. et al., Br J Pharmacol 165:2′52-2166; 2012).

[3] = Biodistribution of PS nanoparticles after intravitreal injection; format: in vivo, New Zealand white rabbits; details: New Zealand white, rabbit
Protocol: Biodistribution of PS after intravitreal injection: PS formulated in nanoparticles as above was injected directly into the vitreous of New Zealand white rabbits. The biodistribution of PS in ocular tissues at the indicated time points post administration was determined by HPLC.

[4] = Biodistribution of PS in human cadaveric eyes (ex vivo), PS HP-β-CD solution; format: in vitro ADME; details: human eye ex vivo
Protocol: Human cadaveric eyes were obtained through the Lions Eye Bank for Long Island, Valley Stream, N.Y. They were preserved on ice and used within 2 h from removal from the donors.
In another similar study, the anterior surface of the human eye was brought into direct contact with a PS HP-β-CD solution (PS concentration at 0.5%, 2.0% and 3.3%) and incubated for 10 min at 37° C. The eye was then rinsed with 10% dimethylsulfoxide (DMSO) to remove residual PS from the surface of the eye and incubated in PBS for 60 min. […] At the specified times, ocular tissues were dissected and PS levels determined by HPLC.

[5] = weekly during 1-month application
[6] = three 25 μL eye drops, PS and its metabolites
[7] = aqueous humor, other: intravitreal, 2% PS Nanoparticle Soln., read-out: PS in Aqueous humor
[8] = cornea, other: intravitreal, 0.2% PS Nanoparticle Soln., read-out: PS in Cornea
[9] = cornea, other: intravitreal, 2% PS Nanoparticle Soln., read-out: PS in Cornea
[10] = retina, other: intravitreal, 0.2% PS Nanoparticle Soln., read-out: PS in Retina
[11] = retina, other: intravitreal, 2% PS Nanoparticle Soln., read-out: PS in Retina
[12] = sclera, other: intravitreal, 2% PS Nanoparticle Soln., read-out: PS in Sclera
[13] = vitreous body, other: intravitreal, 0.2% PS Nanoparticle Soln., read-out: PS in Vitreous body

SMILES: CCOP(=O)(OCC)OCCCCOC(=O)CC1=C(C)/C(=C/c2ccc([S+](C)[O-])cc2)c2ccc(F)cc21 (stereo not drawn) [PS, phosphosulindac]
- signs of uveitis ([1]; 1-month application): No animal developed signs of uveitis
- Intraocular pressure ([1]; Tonopen, 1-month application): remained normal
- tolerability of ocular application ([1]; rabbits, topical): very well tolerated
- slit lamp: corneal abnormalities (staining defects, vascularization, opacification, epithelial defects, stromal thinning, melts) [1, 5]: nor were there signs of corneal abnormalities
- slit lamp: follicular/papillary response or injection of the conjunctiva [1, 5]: no evidence of follicular/papillary response or injection of the conjunctiva
- NF-κB activation in the ILG (NF-κB): suppressed
- activation by phosphorylation of JNK and Erk1/2 (JNK and Erk1/2): profoundly suppressed
- PGE2 levels in tears (PGE2; rabbits with Con A-induced DED treated 1 week): slightly lower than (but not significantly different from) those of naïve rabbits
- PGE2 levels in the cornea (PGE2; rabbits with Con A-induced DED, administered once topically, 1 h later): no different than those of vehicle-treated and naïve rabbits
- PS in the retina ([2]; eye drops): no PS was detected
- Cmax, aqueous humor [2, 6]: 0.9 μm
- Cmax, conjunctiva [2, 6]: 33.6 μm
- Cmax, cornea [2, 6]: 85.4 μm
- AUC(0-t) ([2]; New Zealand, rabbit, iris and ciliary body, topical or ocular, eye drops, read-out: AUC0-16 h in the iris and ciliary body): < 4 µM·h
- concentration at 0.5 h ([3]; aqueous humor, other: intravitreal, 0.2% PS Nanoparticle Soln., read-out: PS in Aqueous humor): 0 µM
- concentration at 0.5 h [3, 7]: 0 µM
- concentration at 1 h [3, 7]: 1.3 µM
- concentration at 0.5 h [3, 8]: 23.5 µM
- concentration at 1 h [3, 8]: 22.4 µM
- concentration at 0.5 h [3, 9]: 187 µM
- concentration at 1 h [3, 9]: 147 µM
- concentration at 0.5 h [3, 10]: 187 µM
- concentration at 1 h [3, 10]: 109 µM
- concentration at 0.5 h [3, 11]: 376 µM
- concentration at 1 h [3, 11]: 220 µM
- concentration at 0.5 h ([3]; sclera, other: intravitreal, 0.2% PS Nanoparticle Soln., read-out: PS in Sclera): 39.8 µM
- concentration at 0.5 h [3, 12]: 224 µM
- concentration at 1 h [3, 12]: 180 µM
- concentration at 0.5 h ([3]; vitreous body, other: intravitreal injection, 2 % PS (nanoparticle solution; injected volume not stated), 2% PS Nanoparticle Soln., read-out: PS in Vitreous body): 125 µM
- concentration at 0.5 h [3, 13]: 198 µM
- concentration at 1 h [3, 13]: 56.2 µM
- concentration at 1 h ([3]; vitreous body, other: intravitreal, 2% PS Nanoparticle Soln., read-out: PS in Vitreous body): 34 µM
- PS in Aqueous ([4]; 0.5% PS HP-β-CD solution): 2.4 µM
- PS in Lens ([4]; 0.5% PS HP-β-CD solution): 0.6 µM
- PS in Retina ([4]; 0.5% PS HP-β-CD solution): 2.9 µM
- PS in Vitreous ([4]; 0.5% PS HP-β-CD solution): 0.3 µM
- PS in Lens ([4]; 2.0% PS HP-β-CD solution): 1.4 µM
- PS in Lens ([4]; 3.3% PS HP-β-CD solution): 1.9 µM
- PS in Vitreous ([4]; 3.3% PS HP-β-CD solution): 4.3 µM
